{"source": "patent US20060127505A1", "about": "“Anti-inflammatory formulations” (priority 2002, published 2006)", "key": {"[1]": {"molecular_target": "PAF (Homo sapiens, UniProt P25105)", "sequence (P25105 whole entry)": "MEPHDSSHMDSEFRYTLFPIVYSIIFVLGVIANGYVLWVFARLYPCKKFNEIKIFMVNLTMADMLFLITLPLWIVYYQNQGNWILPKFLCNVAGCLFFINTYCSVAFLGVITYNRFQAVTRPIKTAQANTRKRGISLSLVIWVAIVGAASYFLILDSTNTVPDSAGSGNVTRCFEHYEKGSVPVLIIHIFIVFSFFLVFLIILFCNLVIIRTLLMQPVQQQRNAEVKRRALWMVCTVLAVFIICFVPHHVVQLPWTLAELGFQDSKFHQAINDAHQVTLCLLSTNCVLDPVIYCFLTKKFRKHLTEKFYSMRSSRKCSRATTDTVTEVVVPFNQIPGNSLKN", "conditions": "cited from earlier work"}, "[2]": {"tested_on": "CD3+HLA-DR+ T lymphocytes in human PBMC", "experiment": "PHA induction of HLA-DR+ on CD3+ T cells, PBMC from asthma patients (Example 5)", "type": "cell-based", "conditions": "for SI HLA-DR: PHA 50 μg/ml, 24 hours", "protocol": "(§1) Experiments were carried out to determine whether the immunoregulatory capacity of two commonly-used H1-inhibitory antihistamines: cetirizine dihydrochloride (CTZ/Zyrtec) and azelastine ([…]) is potentiated by the platelet activating factor receptor (PAFR) antagonist and free radical scavenger Ginkgolide B (GB). […] Each drug was first evaluated independently over a 3-log dose range from 10^-8-10^-6 M."}, "[3]": {"tested_on": "CD3+CD25+ lymphocytes in human PBMC", "experiment": "PHA-mediated induction of CD3+CD25+ lymphocytes in human PBMC (Example 8)", "type": "cell-based", "conditions": "PHA 50 μg/ml, 24 hours", "protocol": "(§2) Cells from 3-12 asthma patients were cultured 24 hours with 50 μg/ml PHA. PBMC evaluated by 2-color flow cytometry were gated for CD3+ and analyzed for CD3+CD25+ or CD3+HLA-DR+ as a percentage of the CD3+ population. Results are reported as stimulation indices (SI) calculated as the ratio of % CD3+CD25+ cells or % CD3+HLA-DR+ cells in fully-stimulated cultures to % CD3+CD25+ or % CD3+HLA-DR+ respectively in cells treated with PHA plus ASX, GB, or combinations thereof."}, "[4]": {"tested_on": "CD3+HLA-DR+ lymphocytes in human PBMC", "experiment": "PHA-mediated induction of CD3+HLA-DR+ lymphocytes in human PBMC (Example 8)", "type": "cell-based", "conditions": "PHA 50 μg/ml, 24 hours", "protocol": "as §2"}, "[5]": {"tested_on": "ovalbumin(OA)-induced asthma in guinea pigs", "experiment": "Ovalbumin-induced asthma in guinea pigs: inflammatory cells in BAL fluid", "type": "in vivo, guinea pig", "conditions": "components used separately: 10 mg/kg AX, 200 mg/kg vit C, 10 mg/kg GB", "protocol": "The effect combinations of vitamin C, astaxanthin, and ginkolide on asthma-associated disease parameters ovalbumin(OA)-induced asthma in guinea pigs was evaluated. Twenty-four hours following OA challenge, animals are sacrificed and numbers of inflammatory cells (eosinophils, neutrophils, macrophages) are measured in bronchoalveolar lavage (BAL) fluid; and cAMP and cGMP concentrations in the lung tissue. The experiments were carried out as follows. Male Hartley guinea pigs (250-350 g) were sensitized by intramuscular injections of 0.35 ml of a 5% (W/V) ovalbumin (OA)/saline solution into each thigh on days 1 and 4. Guinea pigs were ready for asthmatic challenge after 25 days of ovalbumin injection. Asthmatic challenge was carried out with ovalbumin aerosol, and bronchoalveolar lavage (BAL) was done 24 hours later. The numbers of eosinophils, neutrophils, and macrophages in the BAL fluid were counted. Twenty-four hours after the aerosol OA challenge, guinea pigs were killed by cervical dislocation and exsanguinated by severing the axillary arteries. Lungs were lavaged with 50 ml of DulBecco's phosphate-buffered saline (aliquots of 10 ml), which were aspirated after gentle chest massage. BAL fluid was centrifuged at 2200 rpm (1100×g) for 10 min, supernatant was aspirated, and pellets were resuspended in 5 ml 0.25% NaCl to lyse residual erythrocytes. This dispersion was centrifuged at 2200 rpm (1100×g) for 10 min, supernatant was aspirated, and pellets were resuspended 5 ml 0.9% NaCl. Total cell counts were done by hemocytometry using trypan blue stain. Slides were prepared on a Shandon Cytospin 2 (Pittsburgh, Pa.) at 300 rpm for 5 min, fixed and stained. Differential cell counts were done using standard morphologic criteria to classify cells as eosinophils, neutrophils, or macrophages, and the results were expressed in cell numbers. The dose-responsive effect of AX, EGb761, and vitamin C administered independently for suppression of asthma-associated parameters in allergen-induced, asthmatic guinea pigs was determined. Ibuprophen (IB) was used as the positive control. Concentration of inflammatory cells in bronchoalveolar lavage (BAL) fluid and levels of cAMP and cGMP in lung tissue were measured in guinea pigs 24 hours following challenge with OV. Data is reported as mean±SD of measurements taken in 6 animals per dosage cohort. *p<0.05 compared to corresponding values of OV antigen-challenged, drug-free control group. The dose-responsive effect of AX, EGb761, and vitamin C administered in combination for suppression of asthma-associated parameters in allergen-induced, asthmatic guinea pigs was determined. The combination of these three components was given each day for each guinea pig as a “cocktail”. Concentration of inflammatory cells in bronchoalveolar lavage (BAL) fluid and levels of cAMP and cGMP in lung tissue were measured in guinea pigs 24 hours following challenge with OV. Data is reported as mean±SD of measurements taken in 6 animals per dosage cohort. *p<0.05 compared to corresponding values of OV antigen-challenged, drug-free control group."}, "[6]": {"tested_on": "CD3+CD25+ T lymphocytes in human PBMC", "experiment": "PHA induction of CD25+ on CD3+ T cells, PBMC from asthma patients (Example 5)", "type": "cell-based", "conditions": "PHA 50 μg/ml, 24 hours", "protocol": "as §1"}, "[7]": {"tested_on": "TNF-α", "experiment": "TNF-α expression by PHA-stimulated human PBMC, ELISA of supernatant", "type": "cell-based", "conditions": "PHA 50 μg/ml, 24 hours; 10^−4 M", "protocol": "PBMC (2×10^6/ml) from 2 donors were stimulated with 50 μg/ml, PHA; or with astaxanthin (10^−6 M); or with the ginkgolide BN52021 (GB) (10^−4 M); or with a combination of astaxanthin (10^−6 M) plus GB (10^−4 M); or with media. Cells were cultured 24 hours at 37° C., 5% CO2 and analyzed by ELISA for supernatant concentration of TNF-α. Each data point is the mean of triplicate samples."}, "[8]": {"tested_on": "CD3+CD25+ cells in human PBMC", "experiment": "T lymphocyte activation (CD3+CD25+) in PHA-stimulated PBMC of asthma patients (Example 6)", "type": "cell-based", "conditions": "PHA 50 μg/ml, 24 hours", "protocol": "Experiments were carried out to determine whether formulations based on the platelet activating factor receptor (PAFR) antagonist and free radical scavenger Ginkgolide B (GB) in combination with the antioxidant carotenoid astaxanthin (ASX) suppress T cell activation in the same dose range as two commonly-used antihistamines: cetirizine dihydrochloride (CTZ/Zyrtec) and azelastine ([…]). […] Results are reported as stimulation indices (SI) of % CD3+CD25+ cells in cultures treated with PHA alone to % CD3+CD25+ cells in each drug-supplemented culture. […] Subjects for this study included 12 patients diagnosed with atopic asthma, 7 male and 5 female, ranging in age from 21 to 40 years (mean 28±1.8 years). Disease duration ranged from 2 to 12 years. Atopy was defined on the basis of one or more positive skin prick tests to a range of 20 allergens. None of the patients had received systemic therapy for at least 6 weeks prior to blood collection. The mean serum IgE was 335 (170-480) IU/ml. Venous blood for each subject was collected in polyethylene tubes containing EDTA during a one hour morning time interval. PBMC were separated by Ficoll-paque (Pharmacia, Uppsala, Sweden) density gradient centrifugation. Cells were washed and suspended in RPMI 1640 medium (Gibco BRL, Gaithersburg, Md.) at density of 1×10^6 cells/ml. PBMC were stimulated with 50 μg/ml Phytohemaglutinin (PHA) (Sigma Immunopharmaceuticals, St. Lous Mo.), or PHA plus 10^-8-10^-5 M astaxanthin (Natural Alternatives International (NAI) Inc., San Marcos Calif.); or ginkgolide B 10^-8-10^-6 M (NAI San Marcos Calif.); or selected combinations of ASX plus GB. Comparison of ASX and GB effects on T cell activation were made with two other pharmacological agents with anti-asthmatic properties by treating cells with 10^-7-10^-4 M cetirizine dihydrochloride (Pfizer Pharmaceuticals, Norwich Conn.); or 10^-7-10^-4 M azalestine hydrochloride (Wallace Pharmaceuticals, Somerset N.J.), followed by evaluation of cultures for the same biological endpoints as ASX/GB-treated cells. Each reagent was added at the outset of a 24 hours culture period, followed by harvest of cellular fraction for immunophenotyping studies. […] Two-color Flow cytometry was conducted using a Coulter Epics XL automated flow cytometer (Coulter Scientific, Hialeah, Fla., USA). Isotypic controls for the monoclonal antibodies (mAb) used to detect antigens of interest were established for each cell preparation. Positive analysis regions for cells expressing specific surface markers were set against controls and specific binding of fluorophore-conjugated mAb was analyzed by cytofluorography according to standard methods recommended by the manufacturer. Lymphocyte subpopulations were identified by position on forward and side scatter plots and live-gated. Expression of each antigen was reported as percentage cells positive for a particular T cell subpopulation defined by expression of CD3 (T lymphocyte marker) plus CD25, plus or minus standard error. Statistical analysis was performed using an independent t-test. All statistical analyses were performed using the SPSS for Windows statistical package (Norusis/SPSS, Inc.). […] The capacity of formulations evaluated in this study to suppress immune activation was measured as a stimulation index (SI), defined as the ratio of […]."}, "[9]": {"tested_on": "eosinophils", "conditions": "oral treatment; histamine-induced guinea pig eye model; cited from earlier work"}, "[10]": {"tested_on": "cAMP-phosphodiesterase", "conditions": "cited from earlier work"}}, "note": "Entries after “also recorded” stand apart in the source; their conditions may differ."}
{"compound": "COc1ccc(NC(=S)N2CCc3c(sc4c3C(c3ccccc3Cl)=NCc3nnc(C)n3-4)C2)cc1", "note": "[BN 50730]", "values": [{"measurement": "PAF antagonistic activity in vitro compared with BN52021", "setting": "[1]", "result": "several ten-folds more potent"}]}
{"compound": "CC1C(=O)OC2C(O)C34C5CC(C(C)(C)C)C36C(OC(=O)C6O)OC4(C(=O)O5)C12O", "note": "(centres unmarked) [GB, Ginkgolide B]", "values": [{"measurement": "decrease in SI for HLA-DR", "setting": "[2]; 10^−8 M", "result": 39, "unit": "%"}, {"measurement": "SI HLA-DR", "setting": "[2]; 10^−6 M", "result": "0.72 ± 0.18"}, {"measurement": "SI HLA-DR", "setting": "[2]; 10^−7 M", "result": "0.62 ± 0.18"}, {"measurement": "SI HLA-DR", "setting": "[2]; 10^−8 M", "result": "0.61 ± 0.10"}, {"measurement": "CD3+CD25+ Stimulation Index", "setting": "[3]; 10^−6 M", "result": "0.83 ± 1.0"}, {"measurement": "CD3+CD25+ Stimulation Index", "setting": "[3]; 10^−7 M", "result": "0.92 ± 0.08"}, {"measurement": "CD3+CD25+ Stimulation Index", "setting": "[3]; 10^−8 M", "result": "0.90 ± 0.07"}, {"measurement": "CD3+HLA-DR+ Stimulation Index", "setting": "[4]; 10^−6 M", "result": "0.66 ± 0.06"}, {"measurement": "CD3+HLA-DR+ Stimulation Index", "setting": "[4]; 10^−7 M", "result": "0.78 ± 0.20"}, {"measurement": "CD3+HLA-DR+ Stimulation Index", "setting": "[4]; 10^−8 M", "result": "0.73 ± 0.12"}, {"measurement": "protection against OV-induced asthma", "setting": "[5]", "result": "failed to protect; also recorded: failed to reduce the severity of asthma"}, {"measurement": "SI CD25", "setting": "[6]; 10^−6 M", "result": "0.94 ± 0.12"}, {"measurement": "SI CD25", "setting": "[6]; 10^−7 M", "result": "1.18 ± 0.21"}, {"measurement": "SI CD25", "setting": "[6]; 10^−8 M", "result": "0.81 ± 0.14"}, {"measurement": "TNF-alpha", "setting": "[7]", "result": 1689.21, "unit": "pg/mL"}, {"measurement": "SI (CD3+CD25+)", "setting": "[8]; 10^−6 M", "result": "0.77±0.12"}, {"measurement": "SI (CD3+CD25+)", "setting": "[8]; 10^−8 M", "result": "0.86±0.07"}]}
{"compound": "COc1ccc(C2CNC(=O)C2)cc1OC1CCCC1", "note": "(centres unmarked) [rolipram]", "values": [{"measurement": "infiltrate of eosinophils", "setting": "[9]", "result": "significantly suppressed infiltrate"}]}
{"compound": "COc1ccc(-c2cc(=O)c3c(O)cc(O)c(-c4cc(-c5cc(=O)c6c(O)cc(OC)cc6o5)ccc4OC)c3o2)cc1", "note": "[sciadopitysin]", "values": [{"measurement": "degree of enzyme inhibition (cAMP-phosphodiesterase), order", "setting": "[10]", "result": "almost no capacity for inhibition"}]}
